According to US8124365B2, “Identification of genotype-selective anti-tumor agents” (Whitehead Institute for Biomedical Research, priority 2003, dated 2012):

Experiments:
Format in all cases: cell-based, human
[1] = system: BJ-TERT/LT/ST/RAS^V12 cells; experiment: Calcein AM viability assay, dilution series, BJ-TERT/LT/ST/RAS^V12 tumorigenic cells
Procedure: Described here is work carried out to identify compounds with increased potency or activity in the presence of hTERT, LT, ST, E6, E7 or RAS^V12. […] The primary screen tested (in quadruplicate) the effect of treating tumorigenic […], corresponding to 10 μM for a compound with a molecular weight of 400, which is the approximate median molecular weight of the libraries. […] In live cells, calcein AM is cleaved by intracellular esterases, forming the anionic fluorescent derivative calcein, which cannot diffuse out of live cells. […] The IC50 value (concentration required to inhibit 50% of the calcein AM signal) was calculated for each compound in each cell line (Table 1).
Calcein acetoxylmethyl ester (AM) is a cell membrane-permeable, non-fluorescent compound that is cleaved by intracellular esterases to form the anionic, cell-impermeable, fluorescent compound calcein. Viable cells are stained by calcein because of the presence of intracellular esterases and because the intact plasma membrane prevents fluorescent calcein from leaking out of cells (Wang et al., 1993, supra). Cells were seeded in 384-well plates using a Zymark Sciclone ALH, treated with each […], washed with phosphate-buffered saline on a Packard Minitrak with a 384-well washer and incubated for four hours with 0.7 μg/mL calcein (Molecular Probes). Total fluorescence intensity in each well was recorded on a Packard Fusion platereader, and converted to a percent inhibition of signal by subtracting the instrument background and dividing by the average signal obtained when cells were not treated with any compound.
Compounds to be retested were purchased from manufacturers. Stocks were prepared in DMSO at a concentration of 1 mg/ml in 384-well polypropylene plates with a 16-point, two-fold dilution dose curve of each compound in a column, in duplicates. Column 1-2 and 23-24 were left empty for controls. Daughter retest plates were prepared from stock retest plate by diluting 66.6 fold in DMEM in 384-well deep-deep well plates (4.5 μl transfer into 300 μl). Cells were seeded at a density of 6000 per well in 40 μl, and 20 μl was added from a daughter retest plate. […]
The IC50 in primary BJ cells was divided by the IC50 in BJ-TERT/LT/ST/RAS^V12 tumorigenic cells to obtain a tumor selectivity ratio for each compound. The compound selectivity for each genetic element was determined by calculating the selectivity ratio for each subsequent pair of cell lines in a series.

reactive oxygen species = experiment: ROS analysis, flow cytometry using H2DCF-DA; details: engineered cells
Description: 2′7′ dichlorodihydrofluorescein diacetate (H2DCF-DA) is a non-fluorescent cell permeable compound. The endogenous esterase enzyme inside the cell cleaves the diacetate part, and it can no longer pass out of the cell. Thus it accumulates in the cell. Then H2DCF reacts with ROS to form fluorescent dichlorofluorescene (DCF) which can be measured by flow cytometry in FL1 channel. • 1. Seed cells at 3×10^5 cells per dish in 60 mm dishes and allow to grow overnight. • 2. Treat with the test compound for different period of time (1-10 hr). • 3. Maintain one dish for untreated cells, compound treated cell and positive control dish (hydrogen peroxide treated) for each time point. • 4. Incubate the cells with 10 μM of H2DCF-DA for 10 minutes at 37° C. • 5. For positive control cells, after 5 minutes of H2DCF-DA loading, add 500 μM of hydrogen peroxide and incubate for 5 minutes further. • 6. Harvest the cell by trypsinization. • 7. Wash with cold PBS-twice. • 8. Resuspend the pellet in 100 μl of PBS and transfer into 5 ml FACS tube. • 9. Add 5 μl of propidium iodide (50 μg/ml) and incubate for 10 minutes on ice in dark. • 10. Add 400 μl of PBS and analyze by flow cytometry (Becton-Dickinson). • 11. Acquire the data and analyze using CellQuest software program. • 12. Take only propidium iodiode negative cells (viable cells) for the analysis for DCF staining using the FL1 channel, PI in FL3 channel, plot a quadrant chart.

[2] = system: BJ-TERT/LT/ST/RAS^V12 cells; experiment: Pan-caspase inhibitor block of compound-induced cell death; details: 50 μM inhibitor
BJ primary cells = experiment: Co-treatment of BJ primary cells with camptothecin or erastin and a second compound, calcein AM viability staining; details: for sensitization of BJ cells to camptothecin: simultaneous treatment with camptothecin; for effect on BJ cell viability on its own: calcein AM
Description: (A-C) Western blot of lysates from BJ, BJ-TERT, BJ-TERT/LT/ST, BJ-TERT/LT/ST/RAS^V12, BJ-TERT/LT/RAS^V12 and BJ-TERT/LT/RAS^V12/ST cells with an antibody directed against topoisomerase II (A) or TOPI (B, C). In panel (C), cells were transfected with an siRNA directed against TOPI, lamic A/C or with a control double strand DNA duplex of the same length (TOPI dsDNA). In each case, the blot was probed with an antibody against eIF-4E to identify differences in the amount of protein loaded. The relative amount is quantitated below each band. […] Cell number was determined after transfection with an siRNA directed against TOPI and treatment with the indicated concentrations of camptothecin. (E) Okadaic acid, an inhibitor of PP2A and other cellular phosphatases, sensitizes primary human cells to camptothecin. BJ primary cells were treated simultaneously with the indicated concentrations of both camptothecin and okadaic acid and the effect on calcein AM viability staining was determined. […] BJ primary cells were treated with the indicated concentrations of okadaic acid and the expression level of TOPI was determined by western blot. The relative amount is quantitated below each band.
The compounds in group (iii) are camptothecin (CPT) and a novel compound from a combinatorial library, which Applicants have named erastin, for eradicator of RAS and ST-expressing cells (FIG. 2). Efficient CPT-induced and erastin-induced cell death requires the presence of both ST and RAS^V12 (FIGS. 3 and 4 and Table 1). Although CPT and erastin have a similar genetic basis of selectivity, they have distinct mechanisms of action. […] The phosphatase inhibitor okadaic acid was capable of sensitizing otherwise resistant BJ primary cells to CPT (FIG. 5E), possibly because okadaic acid upregulates TOP1 (FIG. 5F).

BJELR cells = experiment: Screen of ACL library for suppressors of erastin activity in BJELR cells; details: 5 μg/ml erastin
Procedure: ACL library comprises 1,540 compounds and all compounds were prepared in DMSO at […] in 384-well polypropylene plates and stored at −20° C. Replica daughter plates for each library plate were prepared using Zymark Scilone ALH. The daughter plates were diluted 50 fold in DMEM and compound concentration in the daughter plate is 80 μg/ml with 2% DMSO. In assay plate compound from the daughter plate is diluted 20 fold with cell suspension, thus final concentration of each compound is 4 μg/ml.
BJELR cells were seeded at 6000 cells/well (57 μl) (for co-treatment screen) and 5000 cells/well (57 μl) (for pretreatment screen) in 384-well black, clear bottom plates using syringe bulk dispenser. For co-treatment suppressor screen, cells were treated with 3 μl of compound from the daughter plates of ACL library (final concentration in assay plate at 4 μg/ml) and at the same time treated with 5 μg/ml of erastin. Compound transfer was done using 384 fixed cannula head. Plates were incubated for 48 hours at 37° C. in incubator with 5% CO2. For the pretreatment screens, cells were pre-incubated with the compound from ACL daughter library plate for overnight and then treated with 5 μg/ml of erastin for further 48 hours. […] Fluorescence intensity was determined using Fusion platereader with filters centered in an excitation of 485 nm and emission of 535 nm. […]

[3] = system: tumor cells (BJELR cells) versus normal cells (BJEH cells); experiment: Testing of erastin analogs for activity and selectivity in tumor cells versus normal cells
Description: Applicants additionally tested 135 analogs of erastin for activity and selectivity in tumor cells versus normal cells. […] This compound was named erastin B (see FIG. 8). […] BJELR cells are BJ-TERT/LT/ST/RAS^V12 cells, and BJEH are BJ-TERT cells.

TOP1 = experiment: Western blot of TOP1 expression in okadaic acid-treated BJ primary cells
Description: (A-C) Western blot of lysates from BJ, BJ-TERT, BJ-TERT/LT/ST, BJ-TERT/LT/ST/RAS^V12, BJ-TERT/LT/RAS^V12 and BJ-TERT/LT/RAS^V12/ST cells with an antibody directed against topoisomerase II (A) or TOPI (B, C). In panel (C), cells were transfected with an siRNA directed against TOPI, lamic A/C or with a control double strand DNA duplex of the same length (TOPI dsDNA). In each case, the blot was probed with an antibody against eIF-4E to identify differences in the amount of protein loaded. The relative amount is quantitated below each band. […] Cell number was determined after transfection with an siRNA directed against TOPI and treatment with the indicated concentrations of camptothecin. (E) Okadaic acid, an inhibitor of PP2A and other cellular phosphatases, sensitizes primary human cells to camptothecin. BJ primary cells were treated simultaneously with the indicated concentrations of both camptothecin and okadaic acid and the effect on calcein AM viability staining was determined. […] BJ primary cells were treated with the indicated concentrations of okadaic acid and the expression level of TOPI was determined by western blot. The relative amount is quantitated below each band. […]

## CCOc1ccccc1-n1c(C(C)N2CCN(C(=O)COc3ccc(Cl)cc3)CC2)nc2ccccc2c1=O (stereo not drawn) [Erastin, erastin]
[1]; BJ-TERT/LT/ST/RAS^V12 cells, within 18 hours
  effectiveness of cell death: 100%

## COc1cccc2c1C(=O)c1c(O)c3c(c(O)c1C2=O)C[C@@](O)(C(=O)CO)C[C@@H]3O[C@H]1C[C@H](N)[C@H](O)[C@H](C)O1 [Doxorubicin, doxorubicin]
Reactive oxygen species
  formation of reactive oxygen species: did not observe the formation of ROS

## COC(=O)CC(NC(=O)OC(C)(C)C)C(=O)CF [BOC-D-FMK, Boc-Asp(Ome)-fluoromethyl ketone]
[2]
  block of cell death induced by CPT: partially blocked cell death induced by CPT
  block of cell death induced by erastin: not by erastin

## COc1cc([C@@H]2c3cc4c(cc3[C@H](O)[C@H]3COC(=O)[C@H]23)OCO4)cc(OC)c1OC [podophyllotoxin]
BJ primary cells
  sensitization of BJ cells to camptothecin: does not sensitize BJ or BJ-TERT cells to CPT

## Cc1c(C)c2c(c(C)c1O)CC[C@@](C)(CCC[C@H](C)CCC[C@H](C)CCCC(C)C)O2 [α-tocopherol]
BJELR cells
  suppression of erastin activity: suppress erastin activity

## COc1cccc2c1C(=O)c1c(O)c3c(c(O)c1C2=O)C[C@@](O)(C(C)=O)C[C@@H]3O[C@H]1C[C@H](N)[C@H](O)[C@H](C)O1 [Daunorubicin, daunorubicin]
Reactive oxygen species
  formation of reactive oxygen species: did not observe the formation of ROS

## O=C1c2c(O)ccc(O)c2C(=O)c2c(NCCNCCO)ccc(NCCNCCO)c21 [Mitoxantrone, mitoxantrone]
Reactive oxygen species
  formation of reactive oxygen species: did not observe the formation of ROS
[1]; IC50 in primary BJ cells divided by IC50 in BJ-TERT/LT/ST/RAS^V12 tumorigenic cells
  Tumor Selectivity: 16

## erastin B
[3]
  activity and selectivity in tumor cells versus normal cells: active and selective, but less potent than erastin

## C=C1[C@@H](O)[C@@H]2O[C@]3(CC[C@H](/C=C/[C@@H](C)[C@@H]4CC(C)=C[C@@]5(O[C@H](C[C@@](C)(O)C(=O)O)CC[C@H]5O)O4)O3)CC[C@H]2O[C@@H]1[C@@H](O)C[C@H](C)[C@H]1O[C@@]2(CCCCO2)CC[C@H]1C [okadaic acid]
BJ primary cells
  sensitization of BJ or BJ-TERT cells to erastin: does not render BJ or BJ-TERT cells sensitive to erastin
  sensitization of BJ cells to camptothecin: renders BJ cells sensitive to camptothecin
BJ primary cells; 3.4 nM
  effect on BJ cell viability on its own: no effect on its own
BJ primary cells; highest concentrations tested
  effect on BJ cell viability on its own: kills BJ cells
TOP1
  expression level of TOP1: stimulates expression of TOP1
